Test results as given in ChEMBL document CHEMBL4689842, “EUbOPEN Chemogenomics Library wave 1” (2021).

Tests used:
Format in all cases: toxicity, cell-based
HEK-293T = test: Incucyte cell viability with HEK293T; conditions: human, 10 µM, compound concentration 10 uM
Fibroblast = test: Incucyte cell viability with human fibroblast; conditions: 10 µM, compound concentration 10 uM
U2OS = test: Incucyte cell viability with U2OS; conditions: human, 10 µM, compound concentration 10 uM
[1] = 0 h, replicate number 1, timepoint 0 hours
[2] = 0 h, replicate number 2, timepoint 0 hours
[3] = 6 h, replicate number 1, timepoint 6 hours
[4] = 6 h, replicate number 2, timepoint 6 hours
[5] = 12 h, replicate number 1, timepoint 12 hours
[6] = 18 h, replicate number 1, timepoint 18 hours
[7] = 24 h, replicate number 1, timepoint 24 hours
[8] = 12 h, replicate number 2, timepoint 12 hours
[9] = 18 h, replicate number 2, timepoint 18 hours
[10] = 24 h, replicate number 2, timepoint 24 hours
Also: filed as whole numbers so only -1 and 0 and 1 occur.

COc1ccc(S(=O)(=O)c2cc(OC)ccc2S(=O)(=O)c2ccc([C@H](C)NS(C)(=O)=O)cc2)cc1
Growth Rate (HEK-293T; [1]): 1
Growth Rate (HEK-293T; [2]): 0
Growth Rate (HEK-293T; [3]): 0
Growth Rate (HEK-293T; [4]): 1
Growth Rate (HEK-293T; [5]): 1
Growth Rate (HEK-293T; [6]): 1
Growth Rate (HEK-293T; [7]): 1
Growth Rate (Fibroblast; [1]): 0
Growth Rate (Fibroblast; [2]): 1
Growth Rate (Fibroblast; [4]): 0
Growth Rate (Fibroblast; [8]): 1
Growth Rate (Fibroblast; [9]): 1
Growth Rate (Fibroblast; [7]): 1
Growth Rate (U2OS; [1]): 0
Growth Rate (U2OS; [4]): 0
Growth Rate (U2OS; [5]): 0
Growth Rate (U2OS; [8]): 1
Growth Rate (U2OS; [6]): 1
Growth Rate (U2OS; [9]): 0
Growth Rate (U2OS; [7]): 1
Growth Rate (U2OS; [10]): 0

Cc1cc([C@@H](C)Nc2ccccc2C(=O)O)c2nc(N3CCOCC3)cc(=O)n2c1 [AZD-6482]
Growth Rate (HEK-293T; [3]): 0
Growth Rate (HEK-293T; [5]): 0
Growth Rate (HEK-293T; [8]): 1
Growth Rate (HEK-293T; [6]): 0
Growth Rate (HEK-293T; [7]): 0
Growth Rate (HEK-293T; [10]): 1
Growth Rate (Fibroblast; [2]): 0
Growth Rate (Fibroblast; [3]): 0
Growth Rate (Fibroblast; [5]): 0
Growth Rate (Fibroblast; [6]): 0
Growth Rate (Fibroblast; [9]): 1
Growth Rate (Fibroblast; [7]): 1
Growth Rate (U2OS; [1]): 0
Growth Rate (U2OS; [3]): 0
Growth Rate (U2OS; [4]): 1
Growth Rate (U2OS; [5]): 0
Growth Rate (U2OS; [8]): 1
Growth Rate (U2OS; [6]): 0
Growth Rate (U2OS; [9]): 1
Growth Rate (U2OS; [7]): 0

COC(=O)C(Cc1ccc(OCCn2c(=O)sc3cc(C(=O)c4ccccc4)ccc32)cc1)C(=O)OC
Growth Rate (HEK-293T; [1]): 1
Growth Rate (HEK-293T; [2]): 0
Growth Rate (HEK-293T; [3]): 0
Growth Rate (HEK-293T; [5]): 0
Growth Rate (HEK-293T; [6]): 0
Growth Rate (HEK-293T; [7]): 0
Growth Rate (Fibroblast; [1]): 0
Growth Rate (Fibroblast; [4]): 0
Growth Rate (Fibroblast; [5]): 1
Growth Rate (Fibroblast; [8]): 0
Growth Rate (Fibroblast; [6]): 1
Growth Rate (Fibroblast; [9]): 0
Growth Rate (Fibroblast; [7]): 1
Growth Rate (U2OS; [1]): 0
Growth Rate (U2OS; [4]): 1
Growth Rate (U2OS; [5]): 1
Growth Rate (U2OS; [6]): 1
Growth Rate (U2OS; [7]): 1

COc1ccc(S(=O)(=O)N2c3ccc(Cl)cc3[C@](O)(c3ccccc3Cl)[C@@H]2C(=O)N2CCC[C@H]2C(N)=O)cc1OC [RELCOVAPTAN]
Growth Rate (HEK-293T; [1]): 1
Growth Rate (HEK-293T; [2]): 0
Growth Rate (HEK-293T; [3]): 0
Growth Rate (HEK-293T; [5]): 0
Growth Rate (HEK-293T; [6]): 0
Growth Rate (HEK-293T; [7]): 0
Growth Rate (Fibroblast; [1]): 0
Growth Rate (Fibroblast; [2]): 1
Growth Rate (Fibroblast; [3]): 0
Growth Rate (Fibroblast; [5]): 0
Growth Rate (Fibroblast; [6]): 0
Growth Rate (Fibroblast; [7]): 0
Growth Rate (U2OS; [3]): 1
Growth Rate (U2OS; [4]): 0
Growth Rate (U2OS; [5]): 0
Growth Rate (U2OS; [6]): 0
Growth Rate (U2OS; [7]): 0
Growth Rate (U2OS; [10]): 1

O=C(NCC(=O)N1CCCC1)Nc1ccc2cnccc2c1
Growth Rate (HEK-293T; [1]): 0
Growth Rate (HEK-293T; [4]): 0
Growth Rate (HEK-293T; [8]): 0
Growth Rate (HEK-293T; [9]): 1
Growth Rate (HEK-293T; [7]): 1
Growth Rate (HEK-293T; [10]): 0
Growth Rate (Fibroblast; [2]): 0
Growth Rate (Fibroblast; [3]): 0
Growth Rate (Fibroblast; [5]): 0
Growth Rate (Fibroblast; [8]): 1
Growth Rate (Fibroblast; [6]): 0
Growth Rate (Fibroblast; [9]): 1
Growth Rate (Fibroblast; [7]): 0
Growth Rate (Fibroblast; [10]): 1
Growth Rate (U2OS; [1]): 0
Growth Rate (U2OS; [3]): 1
Growth Rate (U2OS; [4]): 0
Growth Rate (U2OS; [5]): 1
Growth Rate (U2OS; [8]): 0
Growth Rate (U2OS; [6]): 1
Growth Rate (U2OS; [7]): 1

O=C1CCc2cc(Nc3cc(OC4CCOCC4)c([N+](=O)[O-])cc3Cl)ccc2N1
Growth Rate (HEK-293T; [1]): 0
Growth Rate (HEK-293T; [2]): 1
Growth Rate (HEK-293T; [4]): 1
Growth Rate (HEK-293T; [8]): 1
Growth Rate (HEK-293T; [10]): 1
Growth Rate (Fibroblast; [2]): 0
Growth Rate (Fibroblast; [3]): 0
Growth Rate (Fibroblast; [5]): 0
Growth Rate (Fibroblast; [8]): 1
Growth Rate (Fibroblast; [6]): 0
Growth Rate (Fibroblast; [7]): 0
Growth Rate (U2OS; [1]): 0
Growth Rate (U2OS; [3]): 0
Growth Rate (U2OS; [4]): 1
Growth Rate (U2OS; [5]): 0
Growth Rate (U2OS; [8]): 1
Growth Rate (U2OS; [6]): 0
Growth Rate (U2OS; [7]): 0
Growth Rate (U2OS; [10]): 1

S=C=Nc1cccc(NC(=S)NCCCCNC(=S)Nc2cccc(N=C=S)c2)c1
Growth Rate (HEK-293T; [2]): 0
Growth Rate (HEK-293T; [3]): 0
Growth Rate (HEK-293T; [4]): 1
Growth Rate (HEK-293T; [5]): 0
Growth Rate (HEK-293T; [6]): 0
Growth Rate (HEK-293T; [7]): 0
Growth Rate (Fibroblast; [1]): 0
Growth Rate (Fibroblast; [3]): 0
Growth Rate (Fibroblast; [5]): 0
Growth Rate (Fibroblast; [6]): 0
Growth Rate (Fibroblast; [7]): 0
Growth Rate (U2OS; [1]): 0
Growth Rate (U2OS; [4]): 0
Growth Rate (U2OS; [5]): 1
Growth Rate (U2OS; [8]): 0
Growth Rate (U2OS; [6]): 0
Growth Rate (U2OS; [7]): 0

Cc1cc(C(C)(C)C)c(O)c(C)c1CC1=NCCN1.Cl [OXYMETAZOLINE HYDROCHLORIDE]
Growth Rate (HEK-293T; [1]): 0
Growth Rate (HEK-293T; [3]): 1
Growth Rate (HEK-293T; [4]): 0
Growth Rate (HEK-293T; [5]): 1
Growth Rate (HEK-293T; [8]): 0
Growth Rate (HEK-293T; [6]): 1
Growth Rate (HEK-293T; [9]): 0
Growth Rate (HEK-293T; [7]): 1
Growth Rate (HEK-293T; [10]): 0
Growth Rate (Fibroblast; [1]): 0
Growth Rate (Fibroblast; [4]): 1
Growth Rate (Fibroblast; [5]): 1
Growth Rate (Fibroblast; [6]): 1
Growth Rate (Fibroblast; [7]): 1
Growth Rate (Fibroblast; [10]): 0
Growth Rate (U2OS; [3]): 0
Growth Rate (U2OS; [4]): 1
Growth Rate (U2OS; [5]): 0
Growth Rate (U2OS; [8]): 1
Growth Rate (U2OS; [6]): 0
Growth Rate (U2OS; [7]): 0
Growth Rate (U2OS; [10]): 1
